By IC50 is commonly meant the point on the concentration scale where inhibition reaches its midpoint.

The text below walks through data of patent US20060063717A1, “Novel inhibitor of beta amyloid cleavage” (Pfizer Inc, priority 2001, published 2006).

*1 amine or outer side, *2 acyl side, *3 side chain or, on linkers, in order; H or OH if unused. Where a SMILES comes first, the peptide text is derived from it. [ ]: non-standard residue; d: D form. X1 = CC(C)(O)[C@H](C[C@H](O)[C@H](CC1CCCCC1)N[*:1])C(=O)[*:2]

The assay deals with β-Secretase (Homo sapiens, UniProt P56817). Conditions: in-vitro ELISA; βAP produced in presence of β-Secretase and APP versus control without inhibitor. (An ELISA detects its analyte on a solid surface through an enzyme-linked reagent.)
Chain of β-Secretase (P56817 46-501): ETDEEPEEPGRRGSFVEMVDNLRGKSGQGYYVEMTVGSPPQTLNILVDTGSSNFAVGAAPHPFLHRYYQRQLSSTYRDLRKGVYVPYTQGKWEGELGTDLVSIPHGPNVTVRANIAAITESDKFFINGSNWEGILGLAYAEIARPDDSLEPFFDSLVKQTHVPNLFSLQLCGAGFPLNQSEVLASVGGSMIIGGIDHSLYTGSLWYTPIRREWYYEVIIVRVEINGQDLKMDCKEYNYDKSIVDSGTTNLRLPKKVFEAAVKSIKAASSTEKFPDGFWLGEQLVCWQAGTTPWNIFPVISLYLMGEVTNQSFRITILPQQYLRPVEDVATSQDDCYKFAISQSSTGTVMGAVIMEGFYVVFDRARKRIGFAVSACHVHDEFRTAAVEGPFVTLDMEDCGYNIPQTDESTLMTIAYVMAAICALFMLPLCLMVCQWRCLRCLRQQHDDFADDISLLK

Excerpt: Such assays, which are well known in the art, measure the concentration of βAP produced (by detection of an antibody against the amino terminus of βAP) in the presence of β-Secretase and APP versus control experiments in the absence of inhibitor.

In the case of `CC(C)[C@H](NC(=O)[C@@H](N)CCC(=O)O)C(=O)N[C@@H](CC(N)=O)C(=O)N[C@@H](CC1CCCCC1)[C@@H](O)C[C@H](C(=O)N[C@H](C)C(=O)N[C@H](CCC(=O)O)C(=O)N[C@H](Cc1ccccc1)C(=O)O)C(C)(C)O` [compound of formula I] (H-EVN[X1][dA][dE][dF]-OH), the IC50 was 49 nM.
